experiment: recombinant barcode read abundance after kanamycin selection (control-corrected) (log10(CPM+1)); higher = more efficient recombination; sequences stand for … in AGTGCAGAGAAAATCGGCCAGTTTTCTCTGCCTGCAGTCCGCATGCCGT…AGATTTATGCAGCGGACTGCCTTTCTCCCAAAGTGATAAACCGGACAGTATCATGGACCGGTTTTCCCGGTAATCCGTATTTGCAAGGTTGGTTTCACT; site = the 11-nt target
Method in brief: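 Reported as log10(CPM+1), each value stands for recombination efficiency. That efficiency is the averaged, control-corrected counts per million of barcodes found at recombinant junctions. Cells from a pooled E. coli library pairing targets with IS621 bridge RNA target-binding loops were plated twice on chloramphenicol/ampicillin LB agar (control) and twice on chloramphenicol/ampicillin/kanamycin with 0.1 mM IPTG.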
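Note: IS621 recombinase and bridge RNA in Escherichia coli cells.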

| Sequence | recombinant barcode read abundance (log10) |
| --- | --- |
| CTACAATCTTGGGTTCTAACCTGTTGCCT (site ATACAATCTAG) | 0.0309 |
| GGAATGACTTGGGTTCTAACCTGTTGCCT (site GCAATGACTAG) | 0.726 |
| CTTACGGCTTGGGTTCTAACCTGTTGCCT (site CTTACCGCTAG) | 0.196 |
| CTCCGTCCTTGGGTTCTAACCTGTTGCGT (site CTCCGCCCTAG) | 0.23 |
| ACATTGTCTTGGGTTCTAACCTGTTGCGG (site ACAGTGTCTCC) | 0.00595 |
| CGTGGAGCTTGGGTTCTAACCTGTTGCCA (site CGTCTAGCTTG) | 0.136 |
| ACTTGAGCTTGGGTTCTAACCTGTTGCAT (site TAGACTCCTTG) | 0.232 |
| ATACCACCTTGGGTTCTAACCTGTTGCCT (site AGACCACCTAG) | 0.431 |
| TCACTTGCTTGGGTTCTAACCTGTTGCCT (site TCACCTGCTAG) | 0.0436 |
| CGAGGGACTTGGGTTCTAACCTGTTGCCT (site CGAGGGCCTAG) | 0.0632 |
| TGGTGTACTTGGGTTCTAACCTGTTGCCT (site TGGAGTACTAG) | 0.0346 |
| TCTGATCCTTGGGTTCTAACCTGTTGCCT (site TCTGATCCTAG) | 0.7 |
| CGGATGGCTTGGGTTCTAACCTGTTGCCT (site CGGATCGCTAG) | 0.0869 |
| TCACTCTCTTGGGTTCTAACCTGTTGCCT (site TGACTCTCTAG) | 0.0273 |
| CTCATTCCTTGGGTTCTAACCTGTTGCTT (site CTCATTCCTAC) | 0.482 |
| GACGTAACTTGGGTTCTAACCTGTTGCAG (site AGGAAGGCTTG) | 0.459 |
| AGCATAACTTGGGTTCTAACCTGTTGCCT (site AGCATAACTAG) | 0.187 |
| TATCAGCCTTGGGTTCTAACCTGTTGCTT (site CATCAGCCTAC) | 0.0522 |
| GGAAGCTCTTGGGTTCTAACCTGTTGCTT (site GTACGCTCTAA) | 0.0116 |
| TCCCATGCTTGGGTTCTAACCTGTTGCCT (site TCCCATCCTAG) | 0.151 |
| ACCCAATCTTGGGTTCTAACCTGTTGCAC (site TAGGCTACTTG) | 0.0478 |
| TCACGTGCTTGGGTTCTAACCTGTTGCCT (site TCACCTGCTAG) | 0.105 |

| Sequence | recombinant barcode read abundance (log10) |
| --- | --- |
| CACCCTACTTGGGTTCTAACCTGTTGCCT (site TACCCTACTAG) | 0.0523 |
| GCAAGTACTTGGGTTCTAACCTGTTGCAG (site GCAAGTACTCT) | 1.95 |
| AGCCTCCCTTGGGTTCTAACCTGTTGCCA (site CAGGGGTCTAT) | 0.121 |
| GTCAAACCTTGGGTTCTAACCTGTTGCTG (site GTCAAGCCTCA) | 0.0163 |
| GCGGGTACTTGGGTTCTAACCTGTTGCCT (site GCGGGTACTAG) | 1.47 |
| GACCTATCTTGGGTTCTAACCTGTTGCCT (site TGTGCTACTGT) | 0.213 |
| CAAACATCTTGGGTTCTAACCTGTTGCCT (site CAAACAGCTAG) | 0.0169 |
| CTACAAGCTTGGGTTCTAACCTGTTGCCT (site CTGCAAGCTAG) | 0.155 |
| GAGCAGTCTTGGGTTCTAACCTGTTGCCT (site GAGAAGTCTAG) | 0 |
| TGTCCTGCTTGGGTTCTAACCTGTTGCCT (site TGTCCTGCTAG) | 0.36 |
| AGTTTCGCTTGGGTTCTAACCTGTTGCGG (site AGTTTCGCTCC) | 0.0842 |
| TGTCCTGCTTGGGTTCTAACCTGTTGCCT (site AGTCCTGCTAG) | 0 |
| ACGAATCCTTGGGTTCTAACCTGTTGCTT (site ACGAGTCCTAA) | 0.461 |
| CAAGTCGCTTGGGTTCTAACCTGTTGCCT (site CAAGTTGCTAG) | 0.0227 |
| ACATGTGCTTGGGTTCTAACCTGTTGCCT (site ACATGTGCTAG) | 1.66 |
| TTGGCAGCTTGGGTTCTAACCTGTTGCCT (site TTGGGAGCTAG) | 0.11 |
| CTATGACCTTGGGTTCTAACCTGTTGCGT (site CTATGACCTAG) | 0.211 |
| GTGAAGCCTTGGGTTCTAACCTGTTGCCT (site TTGAAGCCTAG) | 0.421 |
| AATGGGCCTTGGGTTCTAACCTGTTGCCT (site AATGGGTCTAG) | 0.201 |
| CTTTAGTCTTGGGTTCTAACCTGTTGCTA (site AAAGGTCCTCT) | 0.0491 |
| CTAAGCGCTTGGGTTCTAACCTGTTGCCA (site CTAAGGGCTTG) | 0.205 |
| AGTCGTACTTGGGTTCTAACCTGTTGCCT (site AGTCGTACTAG) | 0.536 |

| Sequence | recombinant barcode read abundance (log10) |
| --- | --- |
| ACTTAGACTTGGGTTCTAACCTGTTGCCT (site ACTTAGACTGG) | 0.258 |
| AACAGACCTTGGGTTCTAACCTGTTGCCT (site TACAGACCTAG) | 0.686 |
| ATAGTTACTTGGGTTCTAACCTGTTGCCT (site ATAGTTACTAG) | 1.73 |
| AGCGGCCCTTGGGTTCTAACCTGTTGCCT (site AGCGGGCCTAG) | 0.0662 |
| GATAACTCTTGGGTTCTAACCTGTTGCCT (site GATAACTCTAG) | 0.734 |
| CAATGGCCTTGGGTTCTAACCTGTTGCCT (site CAACGGCCTAG) | 0.253 |
| GTCGCGTCTTGGGTTCTAACCTGTTGCCT (site GTCGCGCCTAG) | 0.738 |
| CCGAGTCCTTGGGTTCTAACCTGTTGCCT (site CCGATTCCTAG) | 1.2 |
| CGCTGCCCTTGGGTTCTAACCTGTTGCTT (site CGCTGTCCTAA) | 0.512 |
| CTTACGGCTTGGGTTCTAACCTGTTGCCT (site CTTACGGCTAG) | 0.0569 |
| ATAAGAGCTTGGGTTCTAACCTGTTGCCT (site ATAAGAGCTAG) | 1.15 |
| GTAGTATCTTGGGTTCTAACCTGTTGCCT (site GTAGTATCTAG) | 1.96 |
| TAGTCCTCTTGGGTTCTAACCTGTTGCTA (site TAGTCCTCTTA) | 1.05 |
| TAGTGCTCTTGGGTTCTAACCTGTTGCCG (site TAGTGCTCTGG) | 0.0187 |
| ATCCCCTCTTGGGTTCTAACCTGTTGCCT (site ATCGCCTCTAG) | 0.031 |
| GGACCTCCTTGGGTTCTAACCTGTTGCAT (site GGACCTCCTAC) | 0.805 |
| TGGTACGCTTGGGTTCTAACCTGTTGCCT (site TGGTACGCTAG) | 1.45 |
| TCTCGGACTTGGGTTCTAACCTGTTGCCT (site TCGCGGACTAG) | 0.0137 |
| GAGAGAGCTTGGGTTCTAACCTGTTGCAT (site GAGCGAGCTAT) | 0.193 |
| TGAAAGACTTGGGTTCTAACCTGTTGCCG (site GACGGACCTAT) | 0.475 |
| GTCATGCCTTGGGTTCTAACCTGTTGCGT (site GTCTTCCCTAC) | 0.125 |
| ATAGCCACTTGGGTTCTAACCTGTTGCCT (site ATAGCGACTAG) | 0.0246 |

| Sequence | recombinant barcode read abundance (log10) |
| --- | --- |
| GTCGCGTCTTGGGTTCTAACCTGTTGCCT (site GTCGCGACTAG) | 0.198 |
| ACAACCACTTGGGTTCTAACCTGTTGCCT (site ACAACCACTAG) | 0.235 |
| GTCAAGCCTTGGGTTCTAACCTGTTGCTG (site GTCAATCCTCA) | 0.0295 |
| GATGTAACTTGGGTTCTAACCTGTTGCCT (site GAAGTAACTAG) | 0.191 |
| GCCGGTCCTTGGGTTCTAACCTGTTGCCT (site GCGGGTCCTAG) | 0.451 |
| TCTTGTCCTTGGGTTCTAACCTGTTGCGG (site TCTTGTCCTGC) | 0.104 |
| GAGCGTCCTTGGGTTCTAACCTGTTGCTA (site AGCGAATCTCG) | 0.0924 |
| CTGTGAACTTGGGTTCTAACCTGTTGCCT (site CCGTGAACTAG) | 0.133 |
| TCTAACCCTTGGGTTCTAACCTGTTGCGG (site TCGAACCCTCC) | 0.091 |
| ACGTCACCTTGGGTTCTAACCTGTTGCCT (site CCGTCACCTAG) | 0.0656 |
| TAGGAAACTTGGGTTCTAACCTGTTGCGT (site TAGGAAACTAC) | 2.98 |
| AATTGGCCTTGGGTTCTAACCTGTTGCTT (site GATAGGCCTAA) | 0.37 |
| ACTGTCACTTGGGTTCTAACCTGTTGCGG (site GTGTATTCTAG) | 0.046 |
| TACCAGTCTTGGGTTCTAACCTGTTGCTT (site TACCAGTCTAA) | 1.74 |
| ACAGGATCTTGGGTTCTAACCTGTTGCTT (site ACAGGATCTAA) | 2.18 |
| GAAATTCCTTGGGTTCTAACCTGTTGCCT (site GAAAATCCTAG) | 0.148 |
| CCTAAGTCTTGGGTTCTAACCTGTTGCCA (site CCTAAGTCTTG) | 0.11 |
| AGCCACGCTTGGGTTCTAACCTGTTGCCT (site AGCCACACTAG) | 0.124 |
| GGTACGCCTTGGGTTCTAACCTGTTGCAT (site GGTACGACTCT) | 0.17 |
| GACCGTCCTTGGGTTCTAACCTGTTGCCA (site GACTGTCCTTC) | 0.472 |
